Assays:
Format in all cases: binding
S100P = biological target: T1, S100P (Homo sapiens, UniProt P25815); test: direct fluorescence polarization (FP), S100P; conditions: 50 nM labeled foldamer, 20 mM HEPES pH 7.5, 150 mM NaCl, 1 mM CaCl2, 0.5 mM TCEP, 0.01% Tween20, quadratic fit, mean ± SEM, three technical repeats, threshold 1 mM
T1 sequence (P25815 1-95): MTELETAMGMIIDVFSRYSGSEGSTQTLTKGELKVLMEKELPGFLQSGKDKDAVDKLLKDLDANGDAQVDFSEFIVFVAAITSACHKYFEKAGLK
Description: (§1) HTP (and also low-throughput) measurements generally need to be validated by an orthogonal approach to eliminate experimental artifacts. […] In this assay, the association of the fluorescently labeled foldamer and the S100 protein of interest is monitored, through the change in polarization of the emitted light by the fluorophore upon the binding event. In direct FP, the presence of the fluorophore might change the binding affinity of some foldamers. […] Nevertheless, we assumed that the fluorophore would affect all foldamers that target the same binding site to the same degree, because the foldamer scaffold is rigid.
(§2) Briefly, S100 proteins were cloned into a modified pET15b vector with a TEV protease cleavable N-terminal His6-tag and expressed in Escherichia coli BL21 (DE3) cells, followed by Ni^2+-affinity chromatography. For HU assay, S100 proteins were further purified by either hydrophobic interaction chromatography or ion exchange chromatography without the cleavage of the N-terminal His6-tag applying standard conditions. For direct FP measurements, the N-terminal His6-tag was cleaved, and the S100 proteins were purified by hydrophobic interaction chromatography, ion exchange chromatography or size exclusion chromatography. The quality of the recombinant proteins was checked by SDS-PAGE analysis in all cases. The concentration of the recombinant S100 proteins was determined by UV spectrophotometry using the absorbance of Tyr and Trp residues.
(§3) In direct fluorescence polarization assays, S100 proteins were diluted in a buffer containing 50 nM labeled foldamer, 20 mM HEPES pH 7.5, 150 mM NaCl, 1 mM CaCl2, 0.5 mM TCEP and 0.01% Tween20. The dilution series (50 µl) were divided into three technical repeats and transferred (15 µl) to a 384-well microplate. In competitive fluorescence polarization assays, the buffer applied in direct measurements was supplemented with the S100 protein of interest to reach a saturation of 60–80%. This mixture was titrated with the competitor (i.e. the unlabeled peptide). Fluorescence polarization was measured in 8 different S100 concentrations (one of which contained no S100 protein) on a Synergy H4 plate reader using 485 ± 20 nm and 528 ± 20 nm band-pass filters for excitation and emission, respectively. The Kd values were obtained by fitting the data from the FP measurements with the python-based ProFit software using quadratic and competitive binding equation for direct and competitive FP, respectively. The detection threshold was based on two parameters. First, we rejected all fitted dissociation constants above 1 mM.

S100A11 = biological target: T2, S100A11 (Homo sapiens, UniProt P31949); test: direct fluorescence polarization (FP), S100A11; conditions: S100A11, 50 nM labeled foldamer, 20 mM HEPES pH 7.5, 150 mM NaCl, 1 mM CaCl2, 0.5 mM TCEP, 0.01% Tween20, quadratic fit, mean ± SEM, three technical repeats, threshold 1 mM
T2 sequence (P31949 1-105): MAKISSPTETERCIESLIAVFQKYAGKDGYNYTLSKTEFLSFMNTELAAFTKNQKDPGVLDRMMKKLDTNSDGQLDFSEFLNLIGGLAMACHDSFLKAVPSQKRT
Protocol: (§4) HTP (and also low-throughput) measurements generally need to be validated by an orthogonal approach to eliminate experimental artifacts. […] This way, we chose WL, IF, WW, YF, IL, VL, TW, RF, RR, TI, TM, and after resynthesizing with a fluorescent label at the C-terminus (Figs. S15–S26, Table S1), the S100ome was tested against the labeled foldamers by direct fluorescence polarization (FP) (Fig. 3A). In this assay, the association of the fluorescently labeled foldamer and the S100 protein of interest is monitored, through the change in polarization of the emitted light by the fluorophore upon the binding event. In direct FP, the presence of the fluorophore might change the binding affinity of some foldamers. […] Nevertheless, we assumed that the fluorophore would affect all foldamers that target the same binding site to the same degree, because the foldamer scaffold is rigid. Defining the threshold of detection at the dissociation constant of 1 mM, we identified 87 interactions between the selected foldamer fragments and the S100ome out of 220 possible interactions (Table 1, Fig. S4-14).
as §2, §3

S100A10 = S100A10 (Homo sapiens, UniProt P60903); test: direct fluorescence polarization (FP), S100A10; conditions: S100A10, 50 nM labeled foldamer, 20 mM HEPES pH 7.5, 150 mM NaCl, 1 mM CaCl2, 0.5 mM TCEP, 0.01% Tween20, quadratic fit, mean ± SEM, three technical repeats, threshold 1 mM
Sequence of S100A10 (P60903 whole entry): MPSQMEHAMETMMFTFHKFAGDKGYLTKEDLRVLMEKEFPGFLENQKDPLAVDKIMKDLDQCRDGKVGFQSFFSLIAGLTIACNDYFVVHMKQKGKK
Description: as §1, §2, §3

S100Z = biological target: T3, S100Z (Homo sapiens, UniProt Q8WXG8); test: direct fluorescence polarization (FP), S100Z; conditions: 50 nM labeled foldamer, 20 mM HEPES pH 7.5, 150 mM NaCl, 1 mM CaCl2, 0.5 mM TCEP, 0.01% Tween20, quadratic fit, mean ± SEM, three technical repeats, threshold 1 mM
T3 sequence (Q8WXG8 1-99): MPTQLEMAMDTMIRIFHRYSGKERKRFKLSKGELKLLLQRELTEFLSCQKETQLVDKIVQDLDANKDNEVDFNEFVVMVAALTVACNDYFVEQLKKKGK
Description: as §1, §2, §3

S100A7 = biological target: T4, S100A7 (Homo sapiens, UniProt P31151); test: direct fluorescence polarization (FP), S100A7; conditions: S100A7, 50 nM labeled foldamer, 20 mM HEPES pH 7.5, 150 mM NaCl, 1 mM CaCl2, 0.5 mM TCEP, 0.01% Tween20, quadratic fit, mean ± SEM, three technical repeats, threshold 1 mM
T4 sequence (P31151 1-101): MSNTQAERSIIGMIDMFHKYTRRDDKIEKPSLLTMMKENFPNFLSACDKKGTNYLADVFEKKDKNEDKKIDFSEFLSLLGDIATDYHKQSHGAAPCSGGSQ
Protocol: as §4, §2, §3

S100G = biological target: T5, S100G (Homo sapiens, UniProt P29377); test: direct fluorescence polarization (FP), S100G; conditions: 50 nM labeled foldamer, 20 mM HEPES pH 7.5, 150 mM NaCl, 1 mM CaCl2, 0.5 mM TCEP, 0.01% Tween20, quadratic fit, mean ± SEM, three technical repeats, threshold 1 mM
T5 sequence (P29377 2-79): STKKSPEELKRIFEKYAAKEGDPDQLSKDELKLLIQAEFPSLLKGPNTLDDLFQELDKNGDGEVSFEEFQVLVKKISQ
Protocol: as §4, §2, §3

S100A14 = biological target: T6, S100A14 (Homo sapiens, UniProt Q9HCY8); test: direct fluorescence polarization (FP), S100A14; conditions: S100A14, 50 nM labeled foldamer, 20 mM HEPES pH 7.5, 150 mM NaCl, 1 mM CaCl2, 0.5 mM TCEP, 0.01% Tween20, quadratic fit, mean ± SEM, three technical repeats, threshold 1 mM
T6 sequence (Q9HCY8 1-104): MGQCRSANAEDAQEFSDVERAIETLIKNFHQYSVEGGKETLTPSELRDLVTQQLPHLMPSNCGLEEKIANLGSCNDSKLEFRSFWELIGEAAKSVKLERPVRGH
Protocol: as §4, §2, §3

S100A6 = S100A6 (Homo sapiens, UniProt P06703); test: direct fluorescence polarization (FP), S100A6
Description: as §1, §2, §3

Row | Compound | Kd (S100P) [µM] | Kd (S100A11) [µM] | Kd (S100A10) [µM] | Kd (S100Z) [µM] | Kd (S100A7) [µM] | Kd (S100G) [µM] | Kd (S100A14) [µM] | Kd (S100A6) [µM]
1 | CC[C@H](C)[C@@H](CC(=O)N[C@H]1CCCC[C@@H]1C(=O)N[C@H]1CCCC[C@@H]1C(=O)N[C@H](CC(=O)N[C@H]1CCCC[C@@H]1C(=O)NCC(=O)N[C@@H](CCCCNC(=O)c1ccc2c(c1)C1(OC2=O)c2ccc(O)cc2Oc2cc(O)ccc21)C(N)=O)Cc1ccccc1)NC(=O)[C@H]1CCCC[C@@H]1N [fIF] | 140 ± 5.8 | 280 ± 15 | 97 ± 2.5 | 480 ± 31 | > 1000 | > 1000 | > 1000 | –
2 | N=C(N)NCCC[C@@H](CC(=O)N[C@H]1CCCC[C@@H]1C(=O)N[C@H]1CCCC[C@@H]1C(=O)N[C@H](CC(=O)N[C@H]1CCCC[C@@H]1C(=O)NCC(=O)N[C@@H](CCCCNC(=O)c1ccc2c(c1)C1(OC2=O)c2ccc(O)cc2Oc2cc(O)ccc21)C(N)=O)Cc1ccccc1)NC(=O)[C@H]1CCCC[C@@H]1N [fRF] | 190 ± 17 | 998 ± 217 | 320 ± 19 | 890 ± 120 | > 1000 | > 1000 | > 1000 | –
3 | CC(C)C[C@@H](CC(=O)N[C@H]1CCCC[C@@H]1C(=O)NCC(=O)N[C@@H](CCCCNC(=O)c1ccc2c(c1)C1(OC2=O)c2ccc(O)cc2Oc2cc(O)ccc21)C(N)=O)NC(=O)[C@H]1CCCC[C@@H]1NC(=O)[C@H]1CCCC[C@@H]1NC(=O)C[C@H](Cc1c[nH]c2ccccc12)NC(=O)[C@H]1CCCC[C@@H]1N [fWL] | 75 ± 5.8 | > 1000 | 23 ± 0.7 | > 1000 | 23 ± 1.5 | > 1000 | > 1000 | 30 ± 1.7
4 | NC(=O)[C@H](CCCCNC(=O)c1ccc2c(c1)C1(OC2=O)c2ccc(O)cc2Oc2cc(O)ccc21)NC(=O)CNC(=O)[C@H]1CCCC[C@@H]1NC(=O)C[C@H](Cc1c[nH]c2ccccc12)NC(=O)[C@H]1CCCC[C@@H]1NC(=O)[C@H]1CCCC[C@@H]1NC(=O)C[C@H](Cc1c[nH]c2ccccc12)NC(=O)[C@H]1CCCC[C@@H]1N [fWW] | 190 ± 6.9 | > 1000 | 150 ± 5.2 | > 1000 | > 1000 | > 1000 | > 1000 | 100 ± 3.2
5 | NC(=O)[C@H](CCCCNC(=O)c1ccc2c(c1)C1(OC2=O)c2ccc(O)cc2Oc2cc(O)ccc21)NC(=O)CNC(=O)[C@H]1CCCC[C@@H]1NC(=O)C[C@H](Cc1ccccc1)NC(=O)[C@H]1CCCC[C@@H]1NC(=O)[C@H]1CCCC[C@@H]1NC(=O)C[C@H](Cc1ccc(O)cc1)NC(=O)[C@H]1CCCC[C@@H]1N [fYF] | 79 ± 5.7 | > 1000 | 70 ± 3.5 | > 1000 | > 1000 | > 1000 | > 1000 | –

The remaining lines, values ahead:

Row | Kd (S100P) [µM] | Kd (S100A11) [µM] | Kd (S100A10) [µM] | Kd (S100Z) [µM] | Kd (S100A7) [µM] | Kd (S100G) [µM] | Kd (S100A14) [µM] | Kd (S100A6) [µM] | Compound
6 | 330 ± 92 | > 1000 | 72 ± 1.6 | > 1000 | > 1000 | > 1000 | > 1000 | – | CC[C@H](C)[C@@H](CC(=O)N[C@H]1CCCC[C@@H]1C(=O)N[C@H]1CCCC[C@@H]1C(=O)N[C@H](CC(=O)N[C@H]1CCCC[C@@H]1C(=O)NCC(=O)N[C@@H](CCCCNC(=O)c1ccc2c(c1)C1(OC2=O)c2ccc(O)cc2Oc2cc(O)ccc21)C(N)=O)CC(C)C)NC(=O)[C@H]1CCCC[C@@H]1N [fIL]
7 | > 1000 | > 1000 | > 1000 | > 1000 | > 1000 | > 1000 | > 1000 | > 1000 | N=C(N)NCCC[C@@H](CC(=O)N[C@H]1CCCC[C@@H]1C(=O)NCC(=O)N[C@@H](CCCCNC(=O)c1ccc2c(c1)C1(OC2=O)c2ccc(O)cc2Oc2cc(O)ccc21)C(N)=O)NC(=O)[C@H]1CCCC[C@@H]1NC(=O)[C@H]1CCCC[C@@H]1NC(=O)C[C@H](CCCNC(=N)N)NC(=O)[C@H]1CCCC[C@@H]1N [fRR]
8 | > 1000 | > 1000 | > 1000 | > 1000 | > 1000 | > 1000 | > 1000 | 699 ± 63 | CC[C@H](C)[C@@H](CC(=O)N[C@H]1CCCC[C@@H]1C(=O)NCC(=O)N[C@@H](CCCCNC(=O)c1ccc2c(c1)C1(OC2=O)c2ccc(O)cc2Oc2cc(O)ccc21)C(N)=O)NC(=O)[C@H]1CCCC[C@@H]1NC(=O)[C@H]1CCCC[C@@H]1NC(=O)C[C@@H](NC(=O)[C@H]1CCCC[C@@H]1N)[C@@H](C)O [fTI]
9 | > 1000 | > 1000 | > 1000 | > 1000 | > 1000 | > 1000 | > 1000 | 517 ± 57 | CSCC[C@@H](CC(=O)N[C@H]1CCCC[C@@H]1C(=O)NCC(=O)N[C@@H](CCCCNC(=O)c1ccc2c(c1)C1(OC2=O)c2ccc(O)cc2Oc2cc(O)ccc21)C(N)=O)NC(=O)[C@H]1CCCC[C@@H]1NC(=O)[C@H]1CCCC[C@@H]1NC(=O)C[C@@H](NC(=O)[C@H]1CCCC[C@@H]1N)[C@@H](C)O [fTM]
10 | – | 570 ± 68 | – | – | > 1000 | > 1000 | > 1000 | – | C[C@@H](O)[C@@H](CC(=O)N[C@H]1CCCC[C@@H]1C(=O)N[C@H]1CCCC[C@@H]1C(=O)N[C@H](CC(=O)N[C@H]1CCCC[C@@H]1C(=O)NCC(=O)N[C@@H](CCCCNC(=O)c1ccc2c(c1)C1(OC2=O)c2ccc(O)cc2Oc2cc(O)ccc21)C(N)=O)Cc1c[nH]c2ccccc12)NC(=O)[C@H]1CCCC[C@@H]1N [fTW]
11 | > 1000 | > 1000 | 110 ± 5.5 | > 1000 | > 1000 | > 1000 | > 1000 | – | CC(C)C[C@@H](CC(=O)N[C@H]1CCCC[C@@H]1C(=O)NCC(=O)N[C@@H](CCCCNC(=O)c1ccc2c(c1)C1(OC2=O)c2ccc(O)cc2Oc2cc(O)ccc21)C(N)=O)NC(=O)[C@H]1CCCC[C@@H]1NC(=O)[C@H]1CCCC[C@@H]1NC(=O)C[C@@H](NC(=O)[C@H]1CCCC[C@@H]1N)C(C)C [fVL]
